Assay results from patent US8916516B2, “Treatment of fungal and/or protist infections” (AI2 Limited, priority 2005, dated 2014).
Like-named read-outs stand apart in the source and are kept apart here.

Assays:
Type in all cases: cell-based
[1] = test system: Aspergillus fumigatus AF293 (NCPF7367); experiment: microbe, parasite or virus in culture; parameters: MIC values (>80% reduction) AF, positive control: unit not given beside the values; conditions: for MIC values (>80% reduction) AF: Aspergillus fumigatus 293, peptides, Tables 4 and 5
Experimental: (§1) Four compounds were supplied as an aqueous solution, 400 μM. Serial dilutions of each test peptide were prepared in addition to a control, which was a conventional antifungal drug, Amphoteracin B. Amphteracin B is obtained from Invitrogen or Melford laboratories.
(§2) Initial testing of the peptides was carried out against the following organisms: • 1) Aspergillus fumigatus AF293 (culture collection strain NCPF7367) • 2) Candida albicans 6862 (clinical isolate) • 3) Fusarium spp 5889 (clinical isolate) • 4) Fusarium spp 6507 (clinical isolate) • 5) Aspergillus terreus (clinical isolate) • 6) Aspergillus niger (clinical isolate) • 7) Staphylococcus aureus (Oxford strain, which is a standard reference strain used in MIC testing)
(§3) The bacterium S. aureus was tested with each of the peptides as a control. A suspension of each organism in an appropriate growth medium was added to the, dilutions of the peptides in order to give concentration ranges of 40 μM to 0.04 μM for each of the peptides, and 64-0.025 μg/ml for amphotericin B. Fungal strains were tested in RPMI media. RPMI is standard Roswell Park Memorial Institute medium (Morton, H. C., (1970) A survey of Commercially Available Tissue Culture Media. In Vitro 6: 89-108).
(§4) The final inoculum for S. aureus was 5×10^4 cfu/ml. The final inoculum for C. albicans was 2×10^3 cfu/ml. The final inoculum for Aspergillus fumigatus and for Fusarium spp was 2×10^4 cfu/ml.
(§5) Candida and S. aureus plates were read after 24 hrs incubation and the Aspergillus and Fusarium strains read after 48 hrs. The MIC was taken as the lowest drug or compound concentration that caused >80% reduction in growth compared with a drug free control.
Aspergillus fumigatus 293 (AF); and
FS1-FS4 were obtained from Bristol PHLS (British Public Health Laboratory Service UK). Aspergillus fumigatus 293 is publicly available as culture collection strain NCPF7367 (National Collection of Pathogenic Fungi Public Health Laboratory, Mycological Reference Laboratory Myrtle Road, Kingsdown, Bristol BS2 8EL) The Candida albicans was a clinical isolate obtained by standard means. […]

[2] = test system: Acanthamoeba polyphaga (trophozoites), Ros strain; experiment: Microtitre plate assay against Acanthamoeba trophozoites (Example 2); conditions: lowest concentration killing the trophozoite challenge
From the text: The test compounds were screened against the trophozoites of clinical isolates of Acanthamoeba spp. using a microtitre plate assay procedure. The organisms were Acanthamoeba polyphaga. (see for details on the strain and methodology used: Hughes, R. & Kilvington, S. (2001). A comparison of hydrogen peroxide contact lens disinfection systems and solutions against Acanthamoeba polyphaga. Antimicrob. Agents Chemother. 45: 2038-2043.) Acanthamoeba polyphaga Ros strain was used throughout the study. The strain was originally isolated from an unpublished case of acanthamoeba keratitis in the United Kingdom in 1994.
Use of the microliter plate assay enabled the determination of the minimum amoebacidal trophozoite concentration (MATC), which is the minimum amoebacidal trophozoite concentration (μg/ml)=lowest concentration killing the trophozoite challenge […] and also the minimum inhibitory trophozoite concentration (MITC), which is the minimum inhibitory trophozoite concentration (μg/ml)=lowest concentration stopping the trophozoites from dividing or killing about 50% of population. The values may then be used to select drug concentrations for use in time-kill experiments to study the kinetics of Acanthamoeba killing.

Fusarium solani 1 (FS1) = experiment: Antifungal MIC (Example 4); parameters: MIC values (>80% reduction) FS1, positive control: unit not given beside the values; conditions: for MIC values (>80% reduction) FS1: Fusarium solani 1, peptides, Tables 4 and 5
Experimental: (§6) The inventor expanded the work conducted in Example 1 by testing an expanded library of peptides derived from either apolipoprotein B or apolipoprotein E in order to further evaluate polypeptides in accordance with the invention. These experiments were conducted using the following fungal species:
(§7) FS1-FS4 were obtained from Bristol PHLS (British Public Health Laboratory Service UK). Aspergillus fumigatus 293 is publicly available as culture collection strain NCPF7367 (National Collection of Pathogenic Fungi Public Health Laboratory, Mycological Reference Laboratory Myrtle Road, Kingsdown, Bristol BS2 8EL) The Candida albicans was a clinical isolate obtained by standard means.
(§8) The methods used to determine, the IC50 values for each peptide were as described in the Example 1.

Fusarium solani 2 (FS2) = experiment: Antifungal MIC (Example 4); parameters: MIC values (>80% reduction) FS2, positive control: unit not given beside the values; conditions: for MIC values (>80% reduction) FS2: Fusarium solani 2, peptides, Tables 4 and 5
Experimental: as §6, §7, §8

Fusarium solani 3 (FS3) = experiment: Antifungal MIC (Example 4); parameters: MIC values (>80% reduction) FS3, positive control: unit not given beside the values; conditions: for MIC values (>80% reduction) FS3: Fusarium solani 3, peptides, Tables 4 and 5
Experimental: as §6, §7, §8

Fusarium solani 4 (FS4) = experiment: Antifungal MIC (Example 4); parameters: MIC values (>80% reduction) FS4, positive control: unit not given beside the values; conditions: for MIC values (>80% reduction) FS4: Fusarium solani 4, peptides, Tables 4 and 5
Experimental: as §6, §7, §8

[3] = test system: Candida albicans (CA), clinical isolate; experiment: Antifungal MIC (Example 4); conditions: peptides, Tables 4 and 5
Experimental: as §6, §7, §8

fungi = conditions: overall statement on the fungi tested
Experimental: as §1, §2
The bacterium S. aureus was tested with each of the peptides as a control. […] RPMI is standard Roswell Park Memorial Institute medium (Morton, H. C., (1970) A survey of Commercially Available Tissue Culture Media. In Vitro 6: 89-108).
as §5, §8

[4] = test system: Candida albicans 6862 (clinical isolate); experiment: microbe, parasite or virus in culture
Experimental: as §1, §2, §3, §4, §5

[5] = test system: Fusarium spp 5889 (clinical isolate); experiment: Antifungal MIC broth dilution (Example 1); conditions: RPMI, 48 hrs, >80% reduction
Experimental: as §1, §2, §3, §4, §5

[6] = test system: Fusarium spp 6507 (clinical isolate); experiment: Antifungal MIC broth dilution (Example 1); conditions: RPMI, 48 hrs, >80% reduction
Experimental: as §1, §2, §3, §4, §5

[7] = test system: Aspergillus niger (clinical isolate); experiment: microbe, parasite or virus in culture
Experimental: as §1, §2, §3, §5

[8] = test system: Aspergillus terreus (clinical isolate); experiment: microbe, parasite or virus in culture
Experimental: as §1, §2, §3, §5

[9] = test system: Staphylococcus aureus (Oxford strain); experiment: microbe, parasite or virus in culture
Experimental: as §1, §2, §3
S. aureus was tested in Isosensitest broth. Isosentitest agar is a standard MIC medium used by many hospital labs for bacterial MICs using a disc diffusion method. The reference standard is Oxoid CM471. Also available in broth form, CM473, for the bacterial broth dilution assay method. NCCLS ref M7-A4. Both the NCCLS methods quoted are the standard methods.
as §4, §5

Compound	MIC values (>80% reduction) AF [1] [µM]	MIC values (>80% reduction) FS1 (Fusarium solani 1 (FS1)) [µM]	MIC values (>80% reduction) FS2 (Fusarium solani 2 (FS2)) [µM]	MIC values (>80% reduction) FS3 (Fusarium solani 3 (FS3)) [µM]	MIC values (>80% reduction) FS4 (Fusarium solani 4 (FS4)) [µM]	MIC values (>80% reduction) CA [3] [µM]	antifungal activity (in words) (fungi)	also measured
FRKFRKRFFFRKFRKRFF (Artficial polypeptide designated MU7) [MU_7]	>40	5	2.5	5	20	>40	particularly effective antifungal peptides	MATC = minimum amoebacidal trophozoite concentration [2]: 93.1 µM
C[C@@H]1[C@H](O)[C@@H](C)/C=C/C=C/C=C/C=C/C=C/C=C/C=C/[C@H](O[C@@H]2O[C@H](C)[C@@H](O)[C@H](N)[C@@H]2O)C[C@@H]2O[C@](O)(C[C@@H](O)C[C@@H](O)[C@H](O)CC[C@@H](O)C[C@@H](O)CC(=O)O[C@H]1C)C[C@H](O)[C@H]2C(=O)O [Amphotericin B, reference compound]	–	–	–	–	–	–	–	MIC ([4]; Candida albicans, C. albicans 6862, RPMI, read after 24 hrs, >80% reduction in growth, read-out: MIC): 0.6 µg/mL; MIC values (>80% reduction) AF, positive control ([1]; Amphotericin B, fifth of five values, unit not given): 0.04; MIC ([1]; NCPF7367, Aspergillus fumigatus, RPMI, read after 48 hrs, >80% reduction, read-out: MIC): 0.6 µg/mL; MIC ([5]; read-out: MIC): 2.5 µg/mL; MIC ([6]; read-out: MIC): 1.25 µg/mL; MIC ([7]; Aspergillus niger, RPMI, >80% reduction, read-out: MIC): 0.15 µg/mL; MIC ([8]; Aspergillus terreus, RPMI, >80% reduction, read-out: MIC): 1.25 µg/mL; MIC ([9]; Staphylococcus aureus, Staph aureus (Oxford), Isosensitest broth, 24 hrs, read-out: MIC): > 40 µg/mL; MIC values (>80% reduction) FS1, positive control (Fusarium solani 1 (FS1); Amphotericin B, first of five values, unit not given): 0.15; MIC values (>80% reduction) FS2, positive control (Fusarium solani 2 (FS2); Amphotericin B, second of five values, unit not given): 1.25; MIC values (>80% reduction) FS3, positive control (Fusarium solani 3 (FS3); Amphotericin B, third of five values, unit not given): 0.3; MIC values (>80% reduction) FS4, positive control (Fusarium solani 4 (FS4); Amphotericin B, fourth of five values, unit not given): 0.15
Ac-WRKWRKRLLLRKLRKRLL-NH2 [MU_114]	–	–	–	–	–	–	showed antifungal activity	MIC ([4]; 6862 (clinical isolate, 24 h)): >40 µM; MIC ([1]; AF293 (NCPF7367, 48 h)): >40 µM; MIC [5]: 5 µM; MIC [6]: 40 µM; MIC ([7]; clinical isolate): 20 µM; MIC [8]: >40 µM; MIC ([9]; Oxford strain, 24 h): 40 µM; MATC = minimum amoebacidal trophozoite concentration ([2]; listed as MU 114): 98.7 µM; MATC = minimum amoebacidal trophozoite concentration ([2]; listed as MU114): 93.8 µM
RRKRRKRRRRRKRRKRRR (Artificial polypeptide designated MU 16) [MU_16]	40	1.25	1.25	1.25	2.5	10	particularly effective antifungal peptides	–
WRWRRRWRKWRWRRRWRK (Artificial polypeptide designated MU 25) [MU_25, 88]	10	5	5	10	20	>40	reduced activity	–
WRKWRKRWW (Artificial polypeptide designated MU 45) [MU_45, 87; monomer on which MU 4 is based]	>40	40	40	40	>40	>40	ineffective	–
WRWKKKWRKWRWKKKWRK (Artificial polypeptide designated MU 26) [MU_26, 89]	>40	5	5	5	10	>40	reduced activity	–
WRWRKRWRKWRWRKRWRK (Artificial polypeptide designated MU 27) [MU_27]	5	0.6	0.6	0.6	1.25	20	good antifungal activity	–
KRKKRKRKKKRKKRKRKK (Artificial polypeptide designated MU 18) [MU_18, 85]	>40	2.5	10	2.5	>40	>40	particularly effective antifungal peptides	–
CRKCRKRCCCRKCRKRCC (Artficial polypeptide designated MU 12) [MU_12]	40	2.5	5	10	5	>40	particularly effective antifungal peptides	–
